Results on 32 compounds are retold here after patent publication US20110071197A1, “BIS-ARYL COMPOUNDS FOR USE AS MEDICAMENTS” (priority 2008, published 2011).

As usually defined, the inhibition is the change of the read-out against control, counted positive when it falls.

The target of the test is T1, Recombinant human LTC4 synthase (Homo sapiens, UniProt Q16873).
T1 construct: made in house; host or cells: Pichia pastoris
T1 sequence (Q16873 1-150): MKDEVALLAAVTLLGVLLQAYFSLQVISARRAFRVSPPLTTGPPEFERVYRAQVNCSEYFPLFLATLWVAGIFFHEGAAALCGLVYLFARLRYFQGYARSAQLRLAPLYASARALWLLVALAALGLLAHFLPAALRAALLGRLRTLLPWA
The test can be described thus: LTC4 synthase in vitro assay (HTRF detection of LTC4). The class given is biochemical. As to conditions: HTRF method. The protocol: Alternatively HTRF detection of LTC4 can be used:
In the assay, LTC4 synthase catalyses the reaction where the substrate LTA4 is converted to LTC4. Recombinant human LTC4 synthase is expressed in Piccia pastoralis and the purified enzyme is dissolved in 25 mM Tris-buffer pH 7.8 supplemented with 0.1 mM glutathione (GSH) and stored at −80° C. The assay is performed in phosphate buffered saline (PBS) pH 7.4 and 5 mM GSH in 384-well plates.
The following is added chronologically to each well: • 1. 48 μl LTC4 synthase in PBS with 5 mM GSH. The total protein concentration in this solution is 0.5 μg/ml. • 2. […] Incubation of the plate at room temperature for 10 minutes. • 4. 1 μl LTA4 (final conc. 2.5 μM). • 5. Incubation of the plate at room temperature for 5 minutes. • 6. 10 μl of the incubation mixture is analysed using homogeneous time resolved fluorescent (HTRF) detection.

Where [1] appears, read: total concentration of title compound in the assay 10 μM.

With `CC(C)(C)c1ccc(C(=O)Nc2ccc(Oc3ccc(NC(=O)c4cc(Cl)cnc4Cl)c(C(=O)O)c3)cc2)cc1` [8:17, 5-[4-(4-tert-Butylbenzoyl-amino)phenoxy]-2-[(2,5-di-chloropyridine-3-carbonyl)-amino]benzoic acid], under setting [1], the inhibition at 10 µM worked out at 98%.

As for `CCCCOc1ccc(S(=O)(=O)Nc2ccc(Oc3ccc(S(=O)(=O)Nc4ccc(F)c(F)c4)cc3)cc2C(=O)O)cc1` [25:3, 2-(4-Butoxybenzenesulfonyl-amino)-5-[4-(3,4-difluorophenyl-sulfamoyl)phenoxy]benzoic acid], under setting [1], the inhibition at 10 µM is 100%. With `CCCCOc1ccc(S(=O)(=O)Nc2ccc(Oc3ccc(NC(=O)c4ccccc4)cc3)cc2/C=C/C(=O)O)cc1` [Example 22:1, (E)-3-[5-(4-Benzoylaminophenoxy)-2-(4-butoxybenzenesulfonylamino)-phenyl]acrylic acid], the inhibition at 10 µM under setting [1] is 96%. The same measure, in the same setting: for `CC(C)(C)OC(=O)c1cc(Oc2cccc(C(=O)NS(=O)(=O)c3ccc(F)c(F)c3)c2)ccc1Nc1ccc(Cl)cc1` [20:6, 2-(4-Chloro-phenylamino)-5-[3-(3,4-difluoro-benzenesulfonylamino-carbonyl)-phenoxy]-benzoic acid t-butyl ester] the value was 100%. With `CN(C(=O)c1ccc(C(C)(C)C)cc1)c1ccc(Oc2ccc(NC(=O)c3ccc(Cl)cc3Cl)c(C(=O)O)c2)cc1` [9:3, 5-(4-((N-methyl)-4-tert-butylbenz-amido)phenoxy)-2-(2,4-dichlorobenz-amido)benzoic acid], under setting [1], the “% inh.” value was determined as 99%. In the case of `O=C(O)c1cc(Sc2ccc(NS(=O)(=O)c3ccc(Cl)cc3)cc2)ccc1NS(=O)(=O)c1ccc(Cl)cc1` [14:4, 2-(4-chloro-benzenesulfonyl-amino)-5-[4-(4-chloro-benzenesulfonylamino)-phenylsulfanyl]-benzoic acid], the inhibition at 10 µM under setting [1] turned out to be 100%. In the case of `CCCCc1ccc(C(=O)Nc2ccc(Oc3ccc(NC(=O)c4ccc(F)cc4Cl)c(C(=O)O)c3)cc2C(=O)O)cc1` [2:8, 5-[3-carboxy-4-(2-chloro-4-fluorobenz-amido)-phenyloxy]-2-(4-butylbenz-amido)benzoic acid], under setting [1], the “% inh.” value was determined as 100%.

On to `CCCCOc1ccc(S(=O)(=O)Nc2ccc(Oc3ccc(NC(=O)c4ccc(OC(C)C)cc4)c(C(=O)O)c3)cc2/C=C/C(=O)O)cc1` [Example 22:4, 5-[4-(4-butoxybenzenesulfonyl-amino)-3-((E)-2-carboxyvinyl)-phenoxy]-2-(4-isopropoxy-benzoylamino)benzoic acid], for which the inhibition at 10 µM under setting [1] stood at 100%. On the same count and under the same terms, then `O=C(O)c1cc(Oc2ccc(Nc3ccc4occc4c3)c(C(=O)O)c2)ccc1Nc1ccc(F)c(F)c1` [1:4, 5-[3-carboxy-4-(3,4-difluoro-phenylamino)phenyloxy]-2-(benzofuran-5-ylamino)benzoic acid], with 100%. On to `O=C(Nc1ccc(Oc2ccc(NC(=O)c3cc([N+](=O)[O-])ccc3Cl)c(C(=O)O)c2)cc1C(=O)O)c1cccc(Cl)c1` [2:4, 5-[3-carboxy-4-(3-nitro-6-chlorobenz-amido)-phenyloxy]-2-(3-chlorobenz-amido)benzoic acid], for which, under setting [1], the “% inh.” value worked out at 99%. Take `O=C(Nc1ccc(Oc2cccc(S(=O)(=O)Nc3ccc(F)c(F)c3)c2)cc1C(=O)O)c1ccc(Cl)cc1Cl` [19:3, 2-(2,4-Dichloro-benzoylamino)-5-[3-(3,4-difluoro-phenylsufamoyl)-phenoxy]-benzoic acid]: the “% inh.” value under setting [1] was 100%. Turning to `CC(C)(C)c1ccc(C(=O)Nc2ccc(Oc3ccc(NC(=O)c4ccccn4)c(C(=O)O)c3)cc2)cc1` [8:18, 5-[4-(4-tert-Butylbenzoyl-amino)phenoxy]-2-[(pyridine-2-carbonyl)-amino]benzoic acid], under setting [1], the inhibition at 10 µM worked out at 99%.

On to `CN(c1cc(Oc2ccc(NC(=O)c3cccc(Cl)c3)cc2)cc(C(=O)O)c1)c1ccc(F)c(F)c1` [18:6, 3-[4-(3-Chloro-benzoylamino)-phenoxy]-5-[(3,4-difluoro-phenyl)-methyl-amino]-benzoic acid], for which the inhibition at 10 µM under setting [1] worked out at 96%. For the compound `CCCCOc1ccc(S(=O)(=O)NC(=O)c2cccc(Oc3ccc(Nc4ccc(Cl)cc4)c(C(=O)O)c3)c2)cc1` [20:9, 5-[3-(4-Butoxy-benzenesulfonyl-aminocarbonyl)-phenoxy]-2-(4-chloro-phenylamino)-benzoic acid], under setting [1], the inhibition at 10 µM amounted to 100%. As for `CCCCOc1ccc(S(=O)(=O)Nc2ccc(Oc3cccc(NCc4cccc(Cl)c4F)c3)cc2C(=O)O)cc1` [23:4, 2-(4-Butoxybenzenesulfonylamino)-5-[3-(3-chloro-2-fluorobenzylamino)-phenoxy]benzoic acid], the inhibition at 10 µM under setting [1] is 99%.

In the case of `CCCCc1ccc(C(=O)Nc2cccc(Oc3ccc(NC(=O)c4ccc(C(F)(F)F)cc4F)c(C(=O)O)c3)c2)cc1` [10:4, 5-[3-((4-(1-butyl)benzoyl)amino)-phenoxy]-2-(2-fluoro-4-trifluoro-methylbenzoylamino)benzoic acid], under setting [1], the “% inh.” value stood at 95%. In the case of `CCCCN(c1ccc(Oc2ccc(Nc3ccc(F)c(F)c3)c(C(=O)O)c2)cc1)c1ccc(F)c(F)c1` [24:1, 5-{4-[n-Butyl-(3,4-difluorophenyl)-amino]phenoxy}-2-(3,4-difluoro-phenylamino)benzoic acid], the inhibition at 10 µM under setting [1] turned out to be 93%. In the case of `O=C(Cc1ccc(Cl)cc1)Nc1ccc(Oc2ccc(NC(=O)c3ccc(C(F)(F)F)cc3)c(C(=O)O)c2)cc1` [8:7, 5-[(4-(2-(4-chlorophenyl)acetyl-amino)phenoxy)]-2-(4-trifluoro-methylbenzoylamino)benzoic acid], for the setting “compound concentration 1 μM”, the “% inh.” value is 64 (1 μM) %. Consider `CCCCc1ccc(C(=O)Nc2ccc(Oc3ccc(NC(=O)c4ccc(F)c(Cl)c4)c(C(=O)O)c3)cc2C(=O)O)cc1` [2:7, 5-[3-carboxy-4-(3-chloro-4-fluorobenz-amido)-phenyloxy]-2-(4-butylbenz-amido)benzoic acid], for which, under setting [1], the “% inh.” value was determined as 100%. In the case of “2-[(2-Chloro-pyridine-3-carbonyl)-amino]-5-{4-[(4-methoxy-benzene-sulfonyl)methylamino]-phenoxy}benzoic acid [11:20]”, under setting [1], the “% inh.” value is given as 76%. Regarding `Cc1c(F)cccc1S(=O)(=O)Nc1ccc(Oc2ccc(N(C)C(=O)c3ccc(OC(C)C)cc3)c(C(=O)O)c2)cc1` [11:11], the “% inh.” value under setting [1] is on record as 72%. For `O=C(Nc1ccc(Oc2ccc(NC(=O)c3ccc(OC(F)(F)F)cc3)c(C(=O)O)c2)cc1)c1ccccc1` [8:10, 5-(4-benzoylaminophenoxy)-2-(4-trifluoromethoxy-benzoylamino)benzoic acid], the inhibition at 10 µM under setting [1] came to 67%. With `O=C(Nc1ccc(Oc2ccc(NC(=O)c3ccccc3)c(C(=O)O)c2)cc1C(=O)O)c1ccccc1` [4:2, 5-[3-carboxy-4-benzamido-phenyloxy]-2-benzamidobenzoic acid], the inhibition at 10 µM under setting [1] amounted to 93%. Regarding `CCCCc1ccc(C(=O)Nc2ccc(Sc3ccc(NC(=O)c4ccc(CCCC)cc4)c(C(=O)O)c3)cc2C(=O)O)cc1` [13:1, 2-(4-butylbenzamido)-5-((4-(4-butylbenzamido)-3-carboxyphenyl)-sulfanyl)benzoic acid], the inhibition at 10 µM under setting [1] was found to be 98%. With `O=C(Cc1cccc(Oc2ccc(Nc3ccc(Cl)cc3)c(C(=O)O)c2)c1)NS(=O)(=O)c1ccc(F)c(F)c1` [26:2, 2-(4-Chlorophenylamino)-5-{3-[2-(3,4-difluorobenzenesulfonylamino)-2-oxoethyl]phenoxy}benzoic acid], under setting [1], the inhibition at 10 µM worked out at 93%. `CCCCOc1ccc(S(=O)(=O)Nc2ccc(Oc3cccc(CC(=O)NS(=O)(=O)c4ccc(F)c(F)c4)c3)cc2C(=O)OC(C)(C)C)cc1` [26:3]: under setting [1], the “% inh.” value is reported as 95%. Turning to `O=C(Nc1ccc(Oc2ccc(NC(=O)c3ccc(Cl)c(Cl)c3)c(C(=O)O)c2)cc1C(=O)O)c1ccc(F)c(F)c1` [1:8, 5-[3-carboxy-4-(3,4-difluorobenz-amido)phenyloxy]-2-(3,4-dichloro-benzamido)benzoic acid], the “% inh.” value (compound concentration 3 μM) is listed as 99 (3 μM) %.

For `O=C(O)c1cc(Sc2ccc(Nc3ccc(Cl)cc3)cc2)ccc1Nc1ccc(Cl)cc1` [Example 14:1, 2-(4-chlorophenylamino)-5-[4-(4-chlorophenylamino)-phenylsulfanyl]benzoic acid], under setting [1], the inhibition at 10 µM was 98%. On to `CCCCc1ccc(C(=O)Nc2ccc(Oc3ccc(NC(=O)c4cc(Cl)cc(Cl)c4)c(C(=O)O)c3)cc2C(=O)O)cc1` [2:6, 5-[3-carboxy-4-(3-chloro-5-chloro-benzamido)-phenyloxy]-2-(4-butylbenz-amido)benzoic acid], for which, under setting [1], the “% inh.” value came to 100%. Turning to `O=C(Nc1ccc(Oc2ccc(NC(=O)c3ccc([N+](=O)[O-])cc3)c(C(=O)O)c2)cc1C(=O)O)c1ccccc1` [5:2, 5-[3-carboxy-4-(4-nitrobenzamido)-phenyloxy]-2-benzamidobenzoic acid], the inhibition at 10 µM under setting [1] was 99%. With `COc1ccc(S(=O)(=O)N(C)c2ccc(Oc3ccc(NC(=O)c4cc(Cl)ccc4Cl)c(C(=O)O)c3)cc2)cc1` [11:15, 2-(2,5-Dichloro-benzoylamino)-5-{4-[(4-methoxy-benzenesulfonyl)-methyl-amino]-phenoxy}-benzoic acid], under setting [1], the inhibition at 10 µM was determined as 99%. Take `CCCCN(c1ccc(F)c(F)c1)c1ccc(Oc2ccc(Nc3ccc(F)c(F)c3)c(C(=O)O)c2)cc1C(=O)O` [Example 24:3, 2-[butyl-(3,4-difluorophenyl)amino]-5-[3-carboxy-4-(3,4-difluorophenyl-amino)phenoxy]benzoic acid]: under setting [1], the inhibition at 10 µM worked out at 97%.
